Here are results for one substance from US8802815B2, “Peptides and uses thereof to modulate IGF-1 synthesis and IGF-1 receptor expression” (Universite Pierre et Marie Curie (Paris 6), priority 2009, dated 2014).

Holding throughout (format): cell-based, mouse
Assay [1] relates to IGF-1 receptor. The assay is described as follows: IGF-1R expression by immunohistochemistry, 5-day primary chondrocytes culture (FIG. 3). The settings on record: IHC, 5-day culture.
For assay [2], the system named is chondrocytes. The assay is described as follows: [3H] thymidine incorporation in DNA (cell proliferation), primary chondrocytes culture. As for the experimental part: To assess peptide ability to induce cell proliferation, inventors carried out a test showing [H^3] thymidine incorporation during DNA duplication according to Kurz et al., 1997 method. This test was adapted to the model used by the inventors, namely a primary mouse embryonic chondrocytes culture.
Chondrocytes, obtained by dissociation of mouse mandible condyles (MCDC) were incubated in a culture medium permitting chondrogenesis, in particular, 5×10^5 cells/ml were incubated with 1 μCi [^3H]-thymidine/ml of medium (Amersham, code TRA120, stock 1 mCi/ml, specific activity 5 Ci/mmol) for 3 hours at 37° C. in DMEM medium (Dulbecco's modified Eagle's medium) fetal calf serum (FCS) free but supplemented with 100 μg/ml of ascorbic acid, 1 mmol/L of calcium chloride, 10 mmol/L of 3-glycerophosphate, and antibiotics. Same medium, in which 5 μl of [^3H]-thymidine are added for 2 minutes, is used as negative control. Supernatant was removed and cells were washed twice with saline solution buffered at pH 7.0 (PBS), the cells are washed twice (for 5 minutes) with methanol. Then the cells are washed three times with a 10% trichloroacetic acid (TCA) cold solution. After washing cells twice with DDW, cells are incorporated in 200 μl of 0.3M NaOH for 15 minutes. The cells are then transferred in 3 ml of a neutralized scintillation fluid with 200 μl of 0.3M HCl. […]

For assay [3], the system named is chondrocytes. Kind of assay: Chondrogenesis: cartilage nodule formation in chondrocytes culture (FIG. 6). The note with it: 10^-7M peptide; 7th day of incubation; vs untreated chondrocytes. As for the experimental part:
In FIG. 6, the peptide P70 effect at a concentration of 10^−7M is compared with untreated chondrocytes (control). At 7th day of incubation, in the presence of the peptide, accelerated formation of nodules of cartilage is clearly observed. The cartilage nodules development (volume/culture) is 85% accelerated.

Assay [4] deals with type II collagen. The assay is described as follows: Type II collagen production by immunochemistry, chondrocytes culture (FIG. 5). The settings on record: 10^-7M peptide; 5th day of culture. The protocol:
The mouse embryos chondrocytes obtained according to same protocol as described above were cultured and incubated at a 10^−7M peptide P70 concentration. […] In fact, an increase of 150% is observed relative to the untreated control.

Assay [5] relates to IGF-1. Kind of assay: IGF-1 synthesis by immunohistochemistry, primary chondrocytes culture (FIG. 4). The settings on record: IHC. An excerpt:
Moreover (FIG. 4), P70 inhibits IGF-1 synthesis at 10^−6M (30% inhibition at a high concentration of peptide) and stimulates IGF-1 synthesis at 10^−7M (90% increase at a low concentration of peptide).

Assay [6] deals with IGF-1. The assay is described as follows: IGF-1 production in chondrocytes in culture (FIG. 2). An excerpt:
(§1) Inventors investigated P70 effect on IGF-1 synthesis and on expression of its receptor (IGF-1R) by means of chondrocytes in culture.

In assay [7] the test system is IGF-1R. Kind of assay: IGF-1R expression in chondrocytes in culture, optical density (FIG. 2).
Source text: as §1

With “Acetyl-SNFGSRKFSYKAKFWTDVTTSELG-amide (Ac-SNFGSRKFSYKAKFWTDVTTSELG-NH2) [P70, 24-mer peptide of the invention, N-terminal acetyl, C-terminal amide]”, the “inhibition of IGF-1 receptor expression” value in assay [1] (10^-6 M peptide) was found to be 36.8%. In addition, the “increase of IGF-1 receptor expression” value in assay [1] (10^-7 M peptide) turned out to be 23.8%. In addition, in assay [2] (10^-6M peptide, 3 hours), the “stimulatory effect on the proliferation of chondrocytes, greater than the untreated control” value worked out at 53%. Further, the “stimulation effect on the proliferation of chondrocytes” value in assay [2] (10^-7M peptide) is listed as “not observed”. In addition, the “acceleration of cartilage nodules development (volume/culture)” value in assay [3] was 85%. In addition, in assay [4], the “increase of type II collagen production relative to the untreated control” value worked out at 150%. In addition, in assay [5] (10^-6M peptide), the “inhibition of IGF-1 synthesis” value is listed as 30%. In addition, in assay [5] (10^-7M peptide), the “increase of IGF-1 synthesis” value was found to be 90%. In addition, the “effect on the production of IGF-1” value in assay [6] (10^-6M peptide) is “virtually inhibits”. In addition, the “effect on IGF-1 production” value in assay [6] (10^-7 M peptide) is reported as “important stimulation effect”. For the same substance, the “effect on the production of IGF-1 receptor” value in assay [7] (10^-6M peptide) is “virtually inhibits”. Also, the “effect on expression of IGF-1 receptor (IGF-1R)” value in assay [7] (10^-7 M peptide) was “important stimulation effect”.
